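Protocol summary: plate cells (96-well), add compound at 5 concentrations, incubate 48 h, interpolate endpoints linearly. GI50 is the concentration that inhibits growth by half.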 Active and inactive are the calls of the source. Rule as the data show it: active = GI50 up to about 1.1 µM and inactive = higher.
What was measured:
Experiment in all cases: NCI-60 cell line screen, 48 h
786-0 = system: 786-0
ACHN = system: ACHN
BT-549 = system: BT-549
HCT-116 = system: HCT-116
HCT-15 = system: HCT-15
IGROV-1 = system: IGROV-1
KM12 = system: KM12
M14 = system: M14
Malme-3M = system: Malme-3M
NCI-H23 = system: NCI-H23
NCI-H460 = system: NCI-H460
NCI/ADR-RES = system: NCI/ADR-RES
OVCAR-8 = system: OVCAR-8
SF-268 = system: SF-268
SF-295 = system: SF-295
SNB-75 = system: SNB-75
TK-10 = system: TK-10
UACC-62 = system: UACC-62
SR = system: SR

Compound	GI50 (786-0)	GI50 (ACHN)	GI50 (BT-549)	GI50 (HCT-116)	GI50 (HCT-15)	GI50 (IGROV-1)	GI50 (KM12)	GI50 (M14)	GI50 (Malme-3M)	GI50 (NCI-H23)	GI50 (NCI-H460)	GI50 (NCI/ADR-RES)	GI50 (OVCAR-8)	GI50 (SF-268)	GI50 (SF-295)	GI50 (SNB-75)	GI50 (TK-10)	GI50 (UACC-62)	GI50 (SR)
CCOC(=O)c1cn2c(n1)sc1cccc(C)c12	> 100 µM (inactive)	> 100 µM (inactive)	> 100 µM (inactive)	> 100 µM (inactive)	> 100 µM	47.3 µM (inactive)	> 100 µM (inactive)	> 100 µM (inactive)	> 100 µM (inactive)	> 100 µM (inactive)	71.8 µM (inactive)	> 100 µM (inactive)	> 100 µM (inactive)	> 100 µM (inactive)	> 100 µM (inactive)	> 100 µM (inactive)	> 100 µM (inactive)	> 100 µM (inactive)	–
COc1cc(O)c2c(c1)C(=O)c1cc3c(c(O)c1C2=O)C(OC1OC(C)C(OC)C(O)C1OC)C(OC)C(C)(O)C3=O (stereo unspecified)	5.28 µM (inactive)	2.14 µM (inactive)	14.5 µM (inactive)	2.81 µM (inactive)	3.15 µM	2.12 µM (inactive)	3.7 µM (inactive)	3.02 µM (inactive)	2.39 µM (inactive)	5.86 µM (inactive)	2.72 µM (inactive)	–	2.36 µM (inactive)	5.55 µM (inactive)	4.73 µM (inactive)	4.15 µM (inactive)	3.67 µM (inactive)	–	1.64 µM (inactive)
CC1=NN(c2nc(N)nc(-c3sccc3N)n2)C(C)(C)C1	> 100 µM (inactive)	> 100 µM (inactive)	56.1 µM (inactive)	96.4 µM (inactive)	59.4 µM	> 100 µM (inactive)	46.1 µM (inactive)	23.9 µM (inactive)	47.3 µM (inactive)	64.9 µM (inactive)	81.1 µM (inactive)	37.1 µM (inactive)	62.5 µM (inactive)	> 100 µM (inactive)	92.5 µM (inactive)	36.3 µM (inactive)	> 100 µM (inactive)	58.3 µM (inactive)	–
N#Cc1c(-c2ccc(Cl)cc2)c2c(n(C3OC(CO)C(O)C(O)C3O)c1=S)CCCC2 (stereo unspecified)	60.8 µM (inactive)	79.8 µM (inactive)	25.5 µM (inactive)	53.1 µM (inactive)	> 100 µM	59.2 µM (inactive)	50 µM (inactive)	> 100 µM (inactive)	50.8 µM (inactive)	> 100 µM (inactive)	54.2 µM (inactive)	> 100 µM (inactive)	80.4 µM (inactive)	> 100 µM (inactive)	> 100 µM (inactive)	> 100 µM (inactive)	72.4 µM (inactive)	–	39.2 µM (inactive)

Reference: ChEMBL document CHEMBL1201862, “PubChem BioAssay data set” (2004)
